Consider eleven molecules from patent publication US20060172423A1, “New expression system from rhodococcus” (priority 2002, published 2006).

Read-outs that look alike come from different tables or passages of the source.

The subject of assay [1] is repressor-promoter system of the KstD gene. The assay is described as follows: steroid induction of KSTD activity in cell free extracts (DCPIP as electron acceptor, AD as substrate), SQ1. In kind it is cell-based, Rhodococcus erythropolis SQ1. The protocol: 4-androstene-3,17-dione (AD) induction served as a positive control.
From induced cultures, cell free extracts were prepared as indicated above and tested for KSTD activity using DCPIP as an electron acceptor and AD as a substrate.
(§1) Further, it was investigated whether KSTD1 was constitutively expressed in R. erythropolis RG10. Cell free extracts were prepared from an AD-induced cell culture and from a non-induced cell culture. These extracts were tested for KSTD activity using DCPIP as an electron acceptor and AD as a substrate. For reasons of comparison, the same procedure was performed with R. erythropolis SQ1.

The test system of assay [2] is KSTD activity. The assay is described as follows: KSTD activity in cell free extracts (DCPIP as electron acceptor, AD as substrate), RG10. Format: cell-based, Rhodococcus erythropolis RG10. The settings on record: cell free extract of AD-induced culture. On the procedure: as §1
The test system of assay [3] is KSTD activity. To be noted: gene disruption mutant SDH420; cited from earlier work.

Take `C[C@@H]1CC2=CC(=O)CC[C@@H]2[C@H]2CC[C@]3(C)C(=O)CC[C@H]3[C@@H]21` [7α-methyl-nordione]: the “lifting of kstD promoter repression exerted by the kstR gene product” value (“lifting” below) in assay [1] (addition of steroid compound) is on record as “able to lift kstD promotor repression”.

Turning to `C[C@]12CCC(=O)C=C1CC[C@H]1[C@@H]3CCC(=O)[C@@]3(C)CC[C@@]12O` [9OHAD, 9α-hydroxy-4-androstene-3,17-dione], the “lifting” value in assay [1] is given as “able to lift kstD promotor repression”. For `C=C1C[C@]2(C)C(=O)CC[C@H]2[C@@H]2CCC3=CC(=O)CC[C@@H]3[C@@H]12` [11-methylene-nordione], the “lifting” value in assay [1] (addition of steroid compound) is reported as “able to lift kstD promotor repression”. In the case of `C[C@]12CC[C@H]3C(=CCC4=CC(=O)CC[C@@]43CO)[C@@H]1CCC2=O` [19-OH-7-dehydro-androstene-3,17-dione], in assay [1] (addition of steroid compound), the “lifting” value was “able to lift kstD promotor repression”. On to `C[C@]12CCC(=O)C=C1CC[C@@H]1[C@@H]2CC[C@]2(C)C(=O)CC[C@@H]12` [AD, 4-androstene-3,17-dione], for which the “lifting” value in assay [1] (addition of steroid compound) was “able to lift kstD promotor repression”. Further, the “induction of KSTD activity in R. erythropolis SQ1” value in assay [1] (cell free extracts of induced cultures, DCPIP electron acceptor, AD substrate) is reported as “detected”. Further, the “KSTD activity in R. erythropolis RG10” value in the assay on KSTD activity [2] is “present”. In addition, the “induction of wild-type KSTD activity in R. erythropolis SDH420” value with KSTD activity [3] was “can be induced”. Turning to `C[C@]12C=CC(=O)C=C1CC[C@@H]1[C@@H]2CC[C@]2(C)C(=O)CC[C@@H]12` [ADD, 1,4-androstadiene-3,17-dione], in assay [1] (addition of steroid compound), the “lifting” value was “able to lift kstD promotor repression”. As to `C[C@]12CC[C@H]3[C@@H](CCC4=CC(=O)CC[C@@H]43)[C@@H]1CCC2=O` [estr-4-ene-3,17-dione], the “lifting” value in assay [1] (addition of steroid compound) is “able to lift kstD promotor repression”. For `CC(=O)[C@H]1CC[C@H]2[C@@H]3CC=C4C[C@@H](O)CC[C@]4(C)[C@H]3CC[C@]12C` [pregnenolone], the “lifting” value in assay [1] (addition of steroid compound) is recorded as “able to lift kstD promotor repression”. Turning to `CC(=O)[C@H]1CC[C@H]2[C@@H]3CCC4=CC(=O)CC[C@]4(C)[C@H]3CC[C@]12C` [progesterone], the “lifting” value in assay [1] (addition of steroid compound) is “able to lift kstD promotor repression”. As for `C[C@]12CCC(=O)C[C@@H]1CC[C@@H]1[C@@H]2CC[C@]2(C)[C@@H](O)CC[C@@H]12` [stanolone, 17β-OH-5α-androstane-3-on], the “lifting” value in assay [1] was “able to lift kstD promotor repression”. Take `C[C@]12CC[C@H]3[C@@H](CCC4=CC(=O)CC[C@@]43C)[C@@H]1CC[C@@H]2O` [testosterone]: the “lifting” value in assay [1] is “able to lift kstD promotor repression”.
